Experiments:
[1] = test system: VCAM-1; experiment: TNF-α induced cell surface expression of VCAM-1 on HUVECs; format: cell-based; conditions: Homo sapiens, HUVEC; TNF-α (1 ng/mL) stimulated HUVECs, 6 hours, n=2
Method: The assay was designed as in reference, Transplantation, 1997, 63(5), 759-764, the disclosure of which is incorporated herein by reference for the teaching of the assay.
Human umbilical vein endothelial cells (HUVECs) were obtained from Cascade Biologics (Oregon-USA). Cells were cultured in M-200 medium (Cascade Biologics) supplemented with low serum growth supplements (LSGS) (Cascade Biologics), penicillin-G (100 U/mL), streptomycin (100 μg/mL) and amphotericin B (50 ng/mL) (GIBCO). […] After TNF-α stimulation (1 ng/mL) (R&D Systems (Minneapolis, Minn.)) for 4 hours at 37° C. in an atmosphere of 5% CO2, supernatants were harvested and assayed for the expression of ICAM-1 (intercellular cell adhesion molecules), whereas the expressions of VCAM-1 (vascular cell adhesion molecules) and E-selectin were evaluated after 6 hours of stimulation. […] To quantitatively measure the amount of cell surface expressions of ICAM-1, VCAM-1 and E-selectin, ELISA assay was performed using anti-ICAM-1 (clone BBIG-I1), anti-VCAM-1 (clone BBIG-V1), anti-E-selectin (clone BBIG-E4) antibodies, isotype control mouse IgG1 (clone 11711.11) and the secondary antibody (anti-mouse IgG-HRP antibody) which were procured from R&D Systems (Minneapolis, Minn., USA). […]

[2] = biological target: T1, p38 MAP kinase (Homo sapiens, UniProt Q16539); experiment: p38 MAP kinase inhibition, western blot in anisomycin-stimulated Jurkat cells; format: cell-based; conditions: 0.1 μM, anisomycin 10 μg/mL 30 minutes
T1 construct: endogenous in cells; host or cells: Jurkat T-cells (ATCC)
Method: The method for identifying inhibitors of p38 mitogen-activated protein (MAP) Kinase was designed as in reference, Journal of Lipid Research, 1999, 40, 1911-1919, the disclosure of which is incorporated herein by reference for the teaching of the assay.
Human Jurkat T-cells from American Type Culture Collection (ATCC) were cultivated in Rosewell Park Memorial Institute (RPMI) medium supplemented with 10% fetal bovine serum (FBS), penicillin (100 U/mL) and streptomycin (100 μg/mL) at 37° C. in humidified atmosphere of 95% air-5% CO2. Culture medium was changed every 2-3 days and always 24 hours before harvest. RPMI medium, FBS, CellLytic, anti-β-actin, sodium orthovanadate and anisomycin were purchased from Sigma-Aldrich (USA). TNF-α was purchased from R & D Systems (USA). Complete Protease inhibitor cocktail was procured from Roche.
Jurkat cells were preincubated with vehicle or the compound of example 3 (0.1 μM) for 1 hour in a 37° C., CO2 incubator. For MAPK experiments, the cells were stimulated with anisomycin (10 μg/mL) for 30 minutes. SB 203580 was used as a standard (1 μM). […] Aliquots of the resulting extracts were analyzed for their protein content using the Coomassie Plus Protein Assay Reagent (Pierce) following manufacturer's instructions. […]

[3] = test system: PDE4; experiment: PDE4 inhibition, cAMP fluorescence assay in salbutamol-stimulated U937 cells; format: cell-based, human; conditions: for Relative Fluorescence (RF): U937 cells, salbutamol 1 μM
Method: Culture medium was changed every 2-3 days and always 24 hours before harvest. RPMI medium, FBS and Salbutamol were purchased from Sigma-Aldrich (USA). Rolipram was synthesized in the Medicinal Chemistry Department, Piramal Life Sciences Limited.
Rolipram was used as a standard (0.3, 1 and 3 μM). […] Fluorescence measurements were taken with Polarstar Optima (BMG Labtech-Germany).
Relative fluorescence was calculated using the following formula where: RF=Relative Fluorescence, Fo=fluorescent intensity of the blank or buffer control, F=fluorescence of cAMP or sample: RF=(Fo−F)/Fo
A standard curve was plotted using the RF values of the given standards and the values of cAMP corresponding to the test compounds were determined using the standard plot.

T1 sequence (Q16539 whole entry): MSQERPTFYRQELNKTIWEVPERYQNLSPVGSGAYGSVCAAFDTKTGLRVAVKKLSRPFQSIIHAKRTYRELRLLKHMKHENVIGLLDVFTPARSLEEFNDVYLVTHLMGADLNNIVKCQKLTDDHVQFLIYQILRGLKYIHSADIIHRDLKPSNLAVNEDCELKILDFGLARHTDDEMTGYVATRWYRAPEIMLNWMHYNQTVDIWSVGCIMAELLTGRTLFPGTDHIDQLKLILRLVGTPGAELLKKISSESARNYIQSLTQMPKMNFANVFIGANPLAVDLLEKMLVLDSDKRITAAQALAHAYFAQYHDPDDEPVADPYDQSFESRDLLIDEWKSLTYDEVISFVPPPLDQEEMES

IC50 [1]: 280 nM | p38 MAP kinase inhibition (western blot) [2]: not an inhibitor of p38 MAP kinase
Compound: CN1CC[C@@H](c2c(O)cc(O)c3c(=O)cc(-c4ccc(C(F)(F)F)cc4Cl)oc23)[C@@H]1CO.Cl [Compound of example 3, (+)-trans-2-(2-Chloro-4-trifluoromethyl-phenyl)-5,7-dihydroxy-8-(2-hydroxymethyl-1-methyl-pyrrolidin-3-yl)-chromen-4-one hydrochloride]
PDE4 inhibition (conclusion) ([3]; U937 cells, 1, 3 and 10 μM): not a PDE4 inhibitor | Relative Fluorescence (RF) ([3]; concentration 1 μM): 0.71 | Relative Fluorescence (RF) ([3]; concentration 3 μM): 0.95 | Relative Fluorescence (RF) ([3]; concentration 10 μM): 0.95
